# Reference: patent US12403200B2, “Methods and compositions for treating autoimmune diseases” (priority 2019, dated 2025)
# Assays:
# C57BL/6 (CD45.2+) mice = assay: MOG-induced EAE model with congenic transplant; type: in vivo, mouse
# Experimental: Experimental Autoimmune Encephalomyelitis (EAE) Model: C57BL/6 (CD45.2) mice were induced with MOG35-55 peptide in complete Freund's adjuvant, followed by the administration of pertussis toxin (PTX) at 4 h post MOG35-55 and 24 h post initial dose of PTX. Disease onset was around 9-12 days post induction. Animals were scored twice a day for a duration of 80 days post EAE induction. EAE Clinical Scoring Scale: 1-limp tail; 2-partial hind limb paralysis; 3-Complete hind limb paralysis; 4-Complete hind and partial front limb paralysis; 5-moribund bound. Animals were euthanized at 2 consecutive scores of 4. Terminal analysis of tissues (peripheral blood, lymph nodes) were evaluated to determine chimerism and immune component of the relapsing EAE mice. Lymph node cells were stimulated (S) with PMS/lonomycin (50 ng/mL) and Brefeldin A (1 μg/mL) or not stimulated (NS) and evaluated for T cell chimerism (donor, host) and IL-17 production.
# To induce EAE in a murine model, C57BL/6 (CD45.2+) mice were induced with MOG35_55 peptide in complete Freund's adjuvant, followed by the administration of pertussis toxin (PTX). […]
# [1] = Quintieri et al. 2005; cited from earlier work
Compound,"Incidence (C57BL/6 (CD45.2+) mice; Table 3, EAE incidence, treatment groups of FIG. 5G)","Mean Time to EAE onset (C57BL/6 (CD45.2+) mice; Table 3, treatment groups of FIG. 5G)",peak disease score in active EAE (C57BL/6 (CD45.2+) mice; treatment at day 13),progression of disease activity in active EAE (C57BL/6 (CD45.2+) mice; treatment on day 10 or day 13),cytotoxicity relative to the parent nemorubicin [1]
"CCCCCCCCc1ccc(CCC(N)(CO)CO)cc1 [FTY-720, reference compound]",100%,12 days,2.3,halted disease,
COc1cccc2c1C(=O)c1c(O)c3c(c(O)c1C2=O)C[C@@](O)(C(=O)CO)C[C@@H]3O[C@H]1CC2[C@H](O[C@@H]3[C@@H](OC)OCCN23)[C@H](C)O1 (some centres unmarked) [PNU-159682],,,,,greater than 3000 fold
